Test [1] concerns Pseudomonas aeruginosa. The experiment in a line: Inhibition of biofilm formation in Pseudomonas aeruginosa at MIC incubated for 48 hrs by crystal violet staining based analysis relative to control. Type of test: functional.
Test [2] has as its system Pseudomonas aeruginosa. Description: Antibacterial activity against Pseudomonas aeruginosa by CLSI protocol based broth microdilution method. Type of test: functional. The note with it: for MIC: Pseudomonas aeruginosa. On the technique in general: In broth dilution the organism is exposed to a series of concentrations in liquid medium.
Test [3] has as its system Pseudomonas aeruginosa. Description: Antibacterial activity against Pseudomonas aeruginosa assessed as 1/4 MIC by CLSI protocol based broth microdilution method. Type of test: functional.
The subject of test [4] is Pseudomonas aeruginosa. Description: Antibacterial activity against Pseudomonas aeruginosa assessed as effect on bacterial growth at 16 microg/ml incubated for 24 hrs by growth curve analysis. Type of test: functional, organism-based. The note with it: dose 16.0 µg/ml.
Test [5] relates to Pseudomonas aeruginosa. The experiment in a line: Inhibition of biofilm formation in Pseudomonas aeruginosa at sub-MIC by crystal violet staining based analysis relative to control. The format is functional.
Test [6] has as its system Pseudomonas aeruginosa. Description: Inhibition of biofilm formation in Pseudomonas aeruginosa assessed as absorbance by measuring OD at 570 nm at sub-MIC by crystal violet staining based analysis (reference value: 0.635 +/- 0.014). Type of test: functional.
Test [7] relates to Pseudomonas aeruginosa. Description: Antivirulence activity in Pseudomonas aeruginosa assessed as inhibition of pyocyanin production at sub-MIC by chloroform-HCl extraction method relative to control. Type of test: functional.
The subject of test [8] is Pseudomonas aeruginosa. Description: Antivirulence activity in Pseudomonas aeruginosa assessed as inhibition of rhamnolipids production at sub-MIC by spectrophotometric method relative to control. Type of test: functional.
The subject of test [9] is Pseudomonas aeruginosa. Description: Antivirulence activity in Pseudomonas aeruginosa assessed as inhibition of pyocyanin production by measuring OD at […] at sub-MIC by chloroform-HCl extraction method relative to control. Type of test: functional.
A further test has as its system Klebsiella pneumoniae. Description: Antimicrobial activity against Klebsiella pneumoniae ATCC 700603 assessed as growth inhibition zone by agar diffusion method. Type of test: functional. For orientation: In agar diffusion tests the substance spreads into inoculated agar from a disc or well.
The next test relates to Escherichia coli. Description: Antimicrobial activity against Escherichia coli ATCC 25922 assessed as growth inhibition zone by agar diffusion method. Type of test: functional.
Test [10] concerns Pseudomonas aeruginosa. Description: Antimicrobial activity against Pseudomonas aeruginosa ATCC 27853 assessed as growth inhibition zone by agar diffusion method. Type of test: functional.
The test system of a further test is Staphylococcus aureus. The experiment in a line: Antimicrobial activity against Staphylococcus aureus ATCC 43300 assessed as growth inhibition zone by agar diffusion method. Type of test: functional.
The test system of another test is Bacillus subtilis. Description: Antimicrobial activity against Bacillus subtilis ATCC 6633 assessed as growth inhibition zone by agar diffusion method. The format is functional.
In the next test the test system is Candida albicans. Description: Antimicrobial activity against Candida albicans ATCC 60193 assessed as growth inhibition zone by agar diffusion method. The format is functional.
Test [11] concerns Pseudomonas aeruginosa. The experiment in a line: Antibacterial activity against Pseudomonas aeruginosa assessed as effect on bacterial growth at 9.375 microg/ml incubated for 24 hrs by growth curve analysis. The format is functional, organism-based. The note with it: dose 9.375 µg/ml.
The target in test [12] is T1, Transcriptional activator protein LasR (Pseudomonas aeruginosa (strain ATCC 15692 / PAO1 / 1C / PRS 101 / LMG12228), UniProt P25084).
T1 sequence (P25084 whole entry): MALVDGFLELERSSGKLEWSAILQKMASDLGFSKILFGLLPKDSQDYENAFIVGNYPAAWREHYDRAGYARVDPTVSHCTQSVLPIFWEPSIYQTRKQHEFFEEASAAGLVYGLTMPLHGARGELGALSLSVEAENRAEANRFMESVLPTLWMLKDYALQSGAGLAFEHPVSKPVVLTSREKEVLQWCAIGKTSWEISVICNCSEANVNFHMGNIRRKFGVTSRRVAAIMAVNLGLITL
The experiment in a line: Inhibition of Pseudomonas aeruginosa LasR in Escherichia coli DH5 transfected with lacZ reporter and JN105 production plasmid incubated for 4 hrs by beta-galactosidase reporter based miller test.

A short description of test [13]: Inhibition of quorum sensing system in Pseudomonas aeruginosa PAO1 assessed as reduction in pyocyanin production at 256 microg/ml relative to control. The settings on record: dose 256.0 µg/ml.
Test [14] relates to Pseudomonas aeruginosa. Description: Inhibition of biofilm formation in Pseudomonas aeruginosa PAO1 at 64 microg/ml relative to control. The format is functional.
Test [15] deals with Pseudomonas aeruginosa. The experiment in a line: Antibacterial activity against Pseudomonas aeruginosa assessed as bacterial mortality in presence of clarithromycin relative to control. The format is functional.
Test [16] has as its system Pseudomonas aeruginosa. The experiment in a line: Antibacterial activity against Pseudomonas aeruginosa assessed as bacterial mortality in presence of ciprofloxacin relative to control. The format is functional.
The subject of test [17] is Pseudomonas aeruginosa. The experiment in a line: Antibacterial activity against Pseudomonas aeruginosa assessed as effect on bacterial growth at 37.5 microg/ml incubated for 24 hrs by growth curve analysis. Type of test: functional, organism-based. The settings on record: dose 37.5 µg/ml.
The subject of test [18] is Pseudomonas aeruginosa. Description: Antibacterial activity against Pseudomonas aeruginosa assessed as bacterial mortality relative to control. Type of test: functional.
Test [19] can be described thus: Inhibition of quorum sensing system in Pseudomonas aeruginosa MH602 transfected with lasB promoter expressing gfp-ASV at 62.5 uM incubated for 20 hrs by microplate reader analysis relative to control.
Test [20] can be described thus: Inhibition of quorum sensing system in Pseudomonas aeruginosa MH602 transfected with lasB promoter expressing gfp-ASV at 125 uM incubated for 20 hrs by microplate reader analysis relative to control.
Test [21] is described as follows: Inhibition of quorum sensing system in Pseudomonas aeruginosa MH602 transfected with lasB promoter expressing gfp-ASV at 250 uM incubated for 20 hrs by microplate reader analysis relative to control.
The nature of test [22]: Inhibition of quorum sensing system in Pseudomonas aeruginosa transfected with lasB-gfp reporter gene incubated for 20 hrs by fluorescence based multilabel plate reader analysis. (In general: A reporter such as luciferase makes a cellular process visible.)
The test system of test [23] is Pseudomonas aeruginosa. The experiment in a line: Antibiofilm activity against Pseudomonas aeruginosa assessed as inhibition of biofilm biomass at 300 microg/ml measured after 48 hrs relative to control. The format is functional.
Test [24] has as its system Pseudomonas aeruginosa. Description: Inhibition of biofilm formation in Pseudomonas aeruginosa PAO1 at 50 uM incubated for 24 hrs by crystal violet staining based analysis relative to control. The format is functional.
Test [25] in a line: Inhibition of quorum sensing system in Pseudomonas aeruginosa PAO1 transfected with lasB-gfp reporter gene incubated for >=12 hrs by fluorescence based microplate reader analysis.

Each structure is given as a SMILES string. pIC50: −log10 of the molar value. ≈ marks a conversion by molar mass, not a printed value. Calls of active or inactive are those of the source. No cut-off for these calls is given here.

We go through eleven compounds from ChEMBL document CHEMBL6127070, “Design, synthesis, and molecular dynamic simulations of some novel benzo[d]thiazoles with anti-virulence activity against Pseudomonas aeruginosa” (Eur J Med Chem, 2024).

As to `COC(=O)c1ccc(/N=N/c2c(N)nn3c(N)c(C#N)c(-c4ccc(N(C)C)cc4)nc23)cc1`, the “inhibition (INH)” value in the test with Pseudomonas aeruginosa [1] is listed as 69%.

On to `CC[C@H]1OC(=O)[C@H](C)[C@@H](O[C@H]2C[C@@](C)(OC)[C@@H](O)[C@H](C)O2)[C@H](C)[C@@H](O[C@@H]2O[C@H](C)C[C@H](N(C)C)[C@H]2O)[C@](C)(O)C[C@@H](C)CN(C)[C@H](C)[C@@H](O)[C@]1(C)O` [AZITHROMYCIN], for which the SubMIC in the test on Pseudomonas aeruginosa [2] was 16 µg/mL. Further, the minimum inhibitory concentration (MIC) – broadly, the lowest concentration that inhibits growth of the organism – against Pseudomonas aeruginosa [2] worked out at 85.4 µM; in the test on Pseudomonas aeruginosa [3] it was 20.1 µM (≈ 15.1 µg/mL). Also, the result in the test on Pseudomonas aeruginosa [4] was inactive. For the same compound, the results for the “inhibition (INH)” value in the test on Pseudomonas aeruginosa [5], in the test with Pseudomonas aeruginosa [7] and with Pseudomonas aeruginosa [8] were 21.7%, 51.5% and 47.4%, respectively. Also, the OD with Pseudomonas aeruginosa [6] was determined as 0.307; in the test on Pseudomonas aeruginosa [9] it was 0.216.

With `CN1CCN(c2ccc(/C=C(\C#N)c3nc4ccccc4s3)cc2)CC1`, the “inhibition zone (IZ)” value with Klebsiella pneumoniae stood at 27 mm; in the test on Escherichia coli, 26 mm; in the test with Pseudomonas aeruginosa [10], 26 mm; with Staphylococcus aureus, 28 mm; in the test on Bacillus subtilis, 25 mm; in the test with Candida albicans, 30 mm. Besides, the SubMIC with Pseudomonas aeruginosa [2] was 9.375 µg/mL. In the test with Pseudomonas aeruginosa [2], this compound gave an MIC of 18.8 µg/mL. Further, in the test on Pseudomonas aeruginosa [11], the result was inactive. Further, the “inhibition (INH)” value in the test on Pseudomonas aeruginosa [5] turned out to be 77%; in the test on Pseudomonas aeruginosa [7], 74.6%; in the test on Pseudomonas aeruginosa [8] it was 58.5%. Also, the OD stood at 0.146 in the test with Pseudomonas aeruginosa [6] and 0.113 in the test with Pseudomonas aeruginosa [9]. The pIC50 – broadly, the negative decadic logarithm of the IC50, by convention in mol/L – in test [12] is 5.86.

In the case of `COc1ccc(OCCCCCCCC(=O)NNC(=O)Cn2c(=O)oc3ncccc32)cc1`, in [13], the inhibition (commonly the percentage by which the read-out fell short of the control) was found to be 46.9%. The compound further displayed an inhibition at 64 µg/mL in the test with Pseudomonas aeruginosa [14] of 40%. The mortality – broadly, the percentage killed – in the test on Pseudomonas aeruginosa [15] is given as 49.79%; in the test with Pseudomonas aeruginosa [16], 48.27%.

In the case of `Cc1cc(C)n2ncc(-c3nc4ccccc4s3)c2n1`, the “inhibition zone (IZ)” value is reported as 19 mm with Klebsiella pneumoniae; 17 mm with Escherichia coli; 17 mm in the test with Pseudomonas aeruginosa [10]; 18 mm in the test with Staphylococcus aureus; 15 mm with Bacillus subtilis; 20 mm with Candida albicans. In the test on Pseudomonas aeruginosa [2], this compound returned a SubMIC of 37.5 µg/mL. In addition, in the test on Pseudomonas aeruginosa [2], it took 75 µg/mL to inhibit growth (MIC). In addition, the result in the test with Pseudomonas aeruginosa [17] was inactive. The inhibition result in the test on Pseudomonas aeruginosa [5] and in the test on Pseudomonas aeruginosa [8] was “inactive” each time. Moreover, the results for the OD in the test on Pseudomonas aeruginosa [6] and with Pseudomonas aeruginosa [9] were 0.631 and 0.407, respectively. In addition, the “inhibition (INH)” value in the test on Pseudomonas aeruginosa [7] came out at 8.5%.

For `CC[C@H]1OC(=O)[C@H](C)[C@@H](O[C@H]2C[C@@](C)(OC)[C@@H](O)[C@H](C)O2)[C@H](C)[C@@H](O[C@@H]2O[C@H](C)C[C@H](N(C)C)[C@H]2O)[C@](C)(OC)C[C@@H](C)C(=O)[C@H](C)[C@@H](O)[C@]1(C)O` [CLARITHROMYCIN], the mortality in the test on Pseudomonas aeruginosa [18] is 29.11%.

Take `O=C(O)c1cn(C2CC2)c2cc(N3CCNCC3)c(F)cc2c1=O` [CIPROFLOXACIN]: the mortality in the test with Pseudomonas aeruginosa [18] was 16.99%.

For `Nc1[nH]ncc1-c1nc2ccccc2s1`, the “inhibition zone (IZ)” value in the test on Klebsiella pneumoniae came to 18 mm; in the test on Escherichia coli, 16 mm; in the test on Pseudomonas aeruginosa [10], 16 mm; in the test with Staphylococcus aureus, 15 mm; in the test on Bacillus subtilis it was 15 mm; in the test on Candida albicans, 17 mm. Moreover, in the test with Pseudomonas aeruginosa [2], the SubMIC was found to be 37.5 µg/mL. Moreover, the MIC in the test with Pseudomonas aeruginosa [2] came to 75 µg/mL. Besides, the outcome in the test on Pseudomonas aeruginosa [17] was inactive. In addition, the inhibition entry in the test with Pseudomonas aeruginosa [5] and in the test on Pseudomonas aeruginosa [8] was “inactive” in each case. The OD is recorded as 0.612 in the test with Pseudomonas aeruginosa [6] and 0.425 in the test on Pseudomonas aeruginosa [9]. Moreover, the “inhibition (INH)” value in the test on Pseudomonas aeruginosa [7] is recorded as 4.5%.

As to `O=C(Cn1cc(-c2ccc([N+](=O)[O-])cc2)nn1)Nc1nc2ccccc2[nH]1`, the inhibition in test [19] stood at 63.7%; in test [20], 67.1%; in [21], 68.2%.

On to `COc1ccc(C(=O)CSc2nc3ccccc3s2)c(OC)c1`, for which half-maximal inhibition in [22] (IC50) was put at 45.5 µg/mL (≈ 132 µM). The inhibition at 300 µg/mL with Pseudomonas aeruginosa [23] was 70%.

Consider `[O-][S+](Cc1ccc(Cl)cc1)c1nc2cc(Cl)ccc2o1` (stereo unspecified), for which the inhibition at 50 µM in the test on Pseudomonas aeruginosa [24] turned out to be 46.1%. In addition, in [25], the pIC50 is 5.68.
